# According to EP2902035B1, “Cell-permeable peptide inhibitors of the JNK signal transduction pathway for use in the treatment of inflammatory eye diseases” (Xigen Inflammation Ltd., priority 2010, dated 2012):
# What was measured:
# Assay type in all cases: in vivo, Lewis rats
# [1] = tested on: polymorphonuclear cells (PMN); assay: Quantification of infiltrating polymorphonuclear cells on histological sections in EIU; conditions: IVT injection (SEQ ID NO: 11: 0.2 µg/injection); at 24 hours; mean ± SEM
# Experimental: (§1) For immunohistochemistry, eyeballs were collected and fixed for 1h at room temperature in phosphate buffered saline (PBS) containing 4% paraformaldehyde before being rinsed overnight in PBS. The next day, samples were embedded and frozen in optimal cutting-temperature (OCT) compound (Tissue-Tek®, Sakura Finetek, Zoeterwoude, Netherland) and stored at -80°C. Frozen antero-posterior sections of eyes (10 µm thick) were performed at the optic nerve level using a cryostat (Leica CM 3050S, Rueil-Malmaison, France) and mounted on super-frost slides for immunohistochemical analysis.
# (§2) A second set of experiment was designed to evaluate the anti-inflammatory effect of the JNK-inhibitor (poly-)peptide of SEQ ID NO: 11 at the cellular and tissue level as well as the biodistribution of this molecule 24 hours after administration. Rats were randomized into 11 experimental groups. 6 groups of rats with uveitis: untreated uveitic rats, rats injected intravenously with NaCl or the JNK-inhibitor (poly-)peptide of SEQ ID NO: 11 and rats injected intravitreously with the vehicle, the JNK-inhibitor (poly-)peptide of SEQ ID NO: 11 or dexamethasone. The 5 additional groups without uveitis were: untreated healthy rats, rats treated by NaCl IV or the JNK-inhibitor (poly-)peptide of SEQ ID NO: 11 IV and rats injected IVT with NaCl or the JNK-inhibitor (poly-)peptide of SEQ ID NO: 11. Three eyes from separate rats were collected per group and used for immunohistochemistry.
# (§3) To characterize the cellular infiltrate, sections were double-stained with ED1 and iNOS. […] After staining nuclei with DAPI (Sigma-Aldrich, Saint-Quentin Fallavier, France), sections were mounted in PBS/Glycerol (1/1) and observed by fluorescence photomicroscopy (FXA, Microphot, Nikon, Melville, USA). […] ED1 positive cells and polymorphonuclear cells, identified by the shape of their nuclei stained with DAPI, were quantified on histological sections. […] Results were expressed as mean ± standard error of the mean (SEM).
# ED1 positive cells = assay: Quantification of infiltrating ED1 positive cells on histological sections in EIU; conditions: IVT injection (SEQ ID NO: 11: 0.2 µg/injection); 24 hours after LPS challenge; mean ± SEM
# Experimental: as §1, §2, §3
# [2] = tested on: Endotoxin-Induced Uveitis (EIU); assay: Scoring of Endotoxin-Induced Uveitis (EIU) by slit lamp; conditions: intravitreous (IVT) administration at LPS challenge (SEQ ID NO: 11: 0.2 µg/injection); scored at 24 hours on a scale from 0 to 5; mean ± SEM
# Experimental: For intravenous (IV) injection, 100 µL of saline (NaCl 0.9%) or the JNK-inhibitor (poly-)peptide of SEQ ID NO: 11 (20 µg/kg in saline) were injected in a tail vein using a 25G-needle connected on a 1 mL syringe (Becton Dickinson, France). For intravitreous (IVT) injection, 5 µL of saline or the JNK-inhibitor (poly-)peptide of SEQ ID NO: 11 (0.2 µg/injection in saline) were injected in both eyes using a 30G disposable needle (BD-microfine syringe, nm Médical, Asnière, France). The IV dose of 20 µg/kg (i.e. 3.5 µg/rat in rats weighing 175g) was chosen according to studies showing that the JNK-inhibitor (poly-)peptide of SEQ ID NO: 11 is active at very low doses in other models. For intravitreous injections, the inventors used the minimal dose used in direct ear application after acute noise trauma in patients. This corresponds to 5% of the dose injected intravenously. […]
# In a first set of experiment, 70 rats were randomized into 14 experimental groups with 5 rats per group. […] Clinical ocular inflammation was recorded only at 24 hours (see Scoring of Endotoxin-Induced Uveitis (EIU) section). […]
# Animals were examined by slit lamp at 24 hours, the clinical peak of the disease in our experiments. The intensity of clinical ocular inflammation was scored on a scale from 0 to 5 for each eye as described previously 10: grade (0) indicates no inflammation; grade (1) indicates the presence of a minimal iris and conjunctival vasodilation but without the observation of flare or cells in the anterior chamber (AC); grade (2) indicates the presence of moderate iris and conjunctival vessel dilation but without evident flare or cells in the AC; grade (3) indicates the presence of intense iris vessels dilation, flare and less than 10 cells per slit lamp field in the AC; grade (4) indicates the presence of more severe clinical signs than grade 3, with more than 10 cells in the AC with or without the formation of a hypopion; grade (5) indicates the presence of intense inflammatory reaction, fibrin formation in the AC and total seclusion of the pupil. […]
substance,measurement,setting,value
Dexamethasone sodium phosphate,number of polymorphonuclear cells (PMN),[1],42 ± 11
same,number of ED1 positive infiltrating cells,ED1 positive cells,79 ± 15
same,EIU clinical scores,[2],1.8 ± 0.4 A.U.
